Measured values from patent publication EP0115142B1, “Chroman compounds” (priority 1982, dated 1984).
Counter-ions that a name gives are not always drawn. Marks after values point to notes of the source that are not given here.

Columns and labels:
[1] = tested on: Male Sprague-Dawley (HLA) rats; test: Clonidine hypoactivity (CH) test; assay type: in vivo
Procedure: The suppression can be prevented by administration of an alpha2-antagonist as described by J. Malick et al. in Federation Proceedings, Vol. 40, page 244 (1981), a publication of the Federation of the American Societies of Experimental Biology. Male Sprague-Dawley (HLA) rats, weighing 140 to 180 g, were used throughout these studies. Spontaneous locomotor activity was measured in Animex activity monitors supplied by Columbus Instruments, Columbus, Ohio; groups of three animals were placed in a chamber of clear "Plexiglas", 26.5 x 26.5 x 15 cm for the test. ("Plexiglas" is a trademark of Rohm & Haas Co., Philadelphia, Pennsylvania, USA, for thermoplastic polymethyl methacrylate type polymers and plastic sheets). All animals received two injections prior to testing according to the following paradigm: vehiclec (HPMC) or antagonist was administered subcutaneously 30 minutes prior to intraperitoneal administration of either HPMC or clonidine. […] Animals were placed into the motor activity chambers as soon as possible after the second injection and total activity counts were recorded for 20 minutes. Five groups of 3 rats each were used for each dose of drug or control.

DBA-2 mice = test: Audiogenic seizure (AS): reversal of clonidine protection; assay type: in vivo; settings: for Minimal effective doses (MED) AS (i.p.): one hour before clonidine 0.4 mg/kg i.p., sound 30 minutes later, mice
Excerpt: Audiogenic Seizure (AS): Sound-produced seizures in mice are blocked by clonidine, an alpha2- agonist, and such a model may be used to measure the activity of a particular compound as an alpha2- antagonist, specifically as it decreases clonidine activity. The activity of clonidine in this regard and its relationship to alpha2-receptors is described by R. Horton et al. in the Journal of Pharmacology and Experimental Therapeutics, Vol. 214, No. 2, pages 437-442 (1980). DBA-2 mice (20-22 days of age; 8 to 12 g) are used in these studies. Mice are tested individually in a glass bell jar (112 inches high and 12 inches in diameter) which is placed in a sound-attenuated chamber. An electric bell is used to generate a noise level of 116-118 decibels. Mice are allowed to acclimate to the chamber for 30 seconds and are then exposed to the sound for 60 seconds. The auditory stimulation causes a convulsive episode characterized by wild running, clonus, tonus and death. […] Thus, the test compound is dissolved in a hydroxypropylmethylcellulose (HPMC) vehicle consisting of 0.1% Tween° 80 and 0.5% hydroxypropylmethylcellulose in an 0.9% by weight sodium chloride aqueous solution and injected intraperitoneally (i.p.) into the mouse. (Tween^O is a registered trademark of ICI Americas Inc., Wilmington, Delaware, USA, for emulsifiers, wetting and dispersing agents. Tween@ is polyoxyethylene sorbitan mono-oleate). After one hour, the mouse is challenged with clonidine intraperitoneally at 0.4 mg/kg of body weight. After a further 30 minutes, the mouse is subjected to a tone from a high intensity bell and the mouse is observed for seizure activity. The activity is scored on the basis of whether clonic and/or tonic seizures occur.

locus coeruleus = test: Locus coeruleus test (single unit firing, clonidine reversal); assay type: in vivo, Male Sprague-Dawley rats; settings: anesthetized rats; for clonidine required to re-suppress firing: after firing was reinstated by the test agent, i.v.; for dose that reinstated firing: i.v. infusion after clonidine 10 micrograms/kg i.v. suppressed firing
Procedure: Locus Coeruleus Test: The locus coeruleus test for alpha2-antagonist activity is predictive of anti- depressant activity as described by G. Engberg et al. in Communications in Psychopharmacology, Vol. 4, pages 233-239 (1980). The alphas-antagonistic properties of a test agent are determined as follows: Male Sprague-Dawley rats (280-320 g) are anesthetized with sodium pentobarbitol (60 mg/kg of body weight, i.p.) and placed in a stereotaxic instrument to allow precise location of the electrode in the locus coeruleus. Extracellular single unit activity is recorded from the locus coeruleus using stainless steel or tungsten microelectrodes (2-5 megohm impedance). Extracellular potentials are counted during successive 10 second intervals and recorded on a digital counter. The baseline firing rate of each neuron is determined for 3 to 5 minutes before drug administration. Drugs are injected intravenously in a volume of 0.1 ml; data are collected for 2 to 3 minutes between multiple drug injections. The ability of a test agent to reverse the suppressant effects of clonidine, and the total cumulative dose of clonidine required to override the test agent, are indicative of alpha2-antagonistic properties. In this test, 10 micrograms/kg of body weight of clonidine were administered by infusion intravenously to suppress firing.

mouse = test: Mouse learned helplessness swimming test (MLHS); assay type: in vivo; settings: one hour before test, time in tonic immobility
Procedure: During testing, a mouse is gently placed in the water and tested for a total of 6 minutes as follows: during the first 2 minutes the animal quickly "learns" there is no escape and spends the vast majority of the last 4 minutes floating (tonic immobility). Nothing is recorded during the first 2 minutes (learning period) but the time in seconds spent in tonic immobility during the last 4 minutes of the session is recorded. […] Control (vehicle-treated) groups are run each day and drug-treated groups are compared to these via a Student's t-test.

[2] = target: T1, alpha2 binding site in human platelets (Homo sapiens, UniProt P08913); test: Tritiated yohimbine binding assay
T1 construct: from tissue; host or cells: human platelets (washed and disrupted membrane preparation)
T1 sequence (P08913 1-465): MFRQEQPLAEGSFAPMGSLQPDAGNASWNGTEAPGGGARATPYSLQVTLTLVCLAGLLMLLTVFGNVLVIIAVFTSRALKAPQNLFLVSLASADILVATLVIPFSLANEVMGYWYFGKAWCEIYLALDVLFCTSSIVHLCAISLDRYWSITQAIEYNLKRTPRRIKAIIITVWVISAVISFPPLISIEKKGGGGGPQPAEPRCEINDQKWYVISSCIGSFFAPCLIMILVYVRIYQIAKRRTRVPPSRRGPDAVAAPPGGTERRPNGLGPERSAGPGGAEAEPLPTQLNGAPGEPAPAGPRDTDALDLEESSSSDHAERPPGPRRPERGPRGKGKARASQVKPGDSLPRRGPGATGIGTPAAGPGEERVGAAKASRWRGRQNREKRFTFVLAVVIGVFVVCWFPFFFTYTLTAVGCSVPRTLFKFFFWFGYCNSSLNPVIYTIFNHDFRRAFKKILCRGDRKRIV
Procedure: The test is conducted as described by M. Daiguji et al. in Life Sciences, Vol. 28, pages 2705-2717 (1981). Platelets are washed and disrupted as described in the Daiguji article. The amount of platelet used per assay varies between 0.2 to 1.5 mg of protein. […] For the determination of non-specific binding, 20 microliters of 10 millimolar norepinephrine is used. The incubation is conducted at 25°C for 60 minutes, after which the membranes are filtered under vacuum on a GF/B filter. The filters are then counted in a scintillation counter. […] It is known that if an alpha2-agonist or alpha2-antagonist binds to alpha2 sites, such will be displaced more easily by a compound which is also of the same type, i.e., an agonist or antagonist, respectively.

SMILES: Clc1cccc(Cl)c1N=C1NCCN1 [Clonidine, reference compound]
- lowest dose that consistently produced a statistically significant reduction in motor activity ([1]; i.p., rats, pilot studies): 0.01 mg/kg of body weight
- mice protected from audiogenic seizures (DBA-2 mice; 0.4 mg/kg of body weight, i.p., 30 minutes prior to auditory stimulation): 100%

SMILES: c1ccc2c(c1)CCC(C1=NCCN1)O2 (centres unmarked) [Example 1c, 2-(2-Imidazolin-2-yl)chroman]
- Minimal effective doses (MED) CH (s.c.) ([1]; rat, in vivo): 0.3 mg/kg of body weight
- clonidine required to re-suppress firing (locus coeruleus): 1280 micrograms/kg of body weight
- dose that reinstated firing (locus coeruleus): reinstated firing at the same level
- Minimal effective doses (MED) AS (i.p.) (DBA-2 mice): 5 mg/kg of body weight
- Minimal effective doses (MED) MLHS (i.p.) (mouse): 10 mg/kg of body weight
- IC50 [2]: 34 nM

SMILES: Fc1cccc2c1CCC(C1=NCCN1)O2 (centres unmarked) [Example 2e, 2-(2-Imidazolin-2-yl)-5-fluorochroman]
- Minimal effective doses (MED) CH (s.c.) ([1]; rat, in vivo): 0.5 mg/kg of body weight
- dose that reinstated firing (locus coeruleus): reinstated firing at the same level
- Minimal effective doses (MED) AS (i.p.) (DBA-2 mice): 1 mg/kg of body weight
- Minimal effective doses (MED) MLHS (i.p.) (mouse): 30 mg/kg of body weight
- IC50 [2]: 3.8 nM

SMILES: Fc1cccc2c1OC(C1=NCCN1)CC2 (centres unmarked) [Example 3e, 2-(2-Imidazolin-2-yl)-8-fluorochroman]
- Minimal effective doses (MED) AS (i.p.) (DBA-2 mice): ~3* mg/kg of body weight
- Minimal effective doses (MED) MLHS (i.p.) (mouse): 30 mg/kg of body weight
- IC50 [2]: 53.5 nM

SMILES: c1ccc2c(c1)OCC(C1=NCCN1)O2 (centres unmarked) [RX 781094, 2-[2-(1,4-benzodioxanyl)]-22imidazoline hydrochloride, reference compound]
- Minimal effective doses (MED) CH (s.c.) ([1]; s.c., 30 minutes before clonidine 0.01 mg/kg i.p., rats, activity counts for 20 minutes): 0.03 mg/kg of body weight
- Minimal effective doses (MED) AS (i.p.) (DBA-2 mice): 2.5 mg/kg of body weight

SMILES: COC(=O)[C@@H]1[C@H]2C[C@H]3c4[nH]c5ccccc5c4CCN3C[C@@H]2CC[C@@H]1O [yohimbine, reference compound]
- clonidine required to re-suppress firing (locus coeruleus): 160 micrograms/kg of body weight
- dose that reinstated firing (locus coeruleus): 2.0 mg/kg of body weight
